Reference: BindingDB's records for patent US20250122166 (ST. JUDE CHILDREN''S RESEARCH HOSPITAL, INC., 2025)

Biological target: Protein cereblon (Homo sapiens, UniProt Q96SW2)
Experiment: Crbn Fluorescence Polarization Assay
Procedure: In this competitive fluorescent polarization assay Cy5 conjugated lenalidomide analog (Cy5—O-Len)1 was used as a fluorescent probe. 6XHis-CRBN-DDB1 protein (200 nM) and Cy5—O-Len probe (30 nM) were combined in 20 mM HEPES pH 7, 150 mM NaCl, 0.005% Tween-20 assay buffer. 20 μL of this assay cocktail was dispensed into wells of Corning 3821 black 384-well plates. Compounds were transferred to the assay plate from a dose-response plate using a Pintool on a Biomek FXP Laboratory Automation Workstation (Beckman Coulter). The plates were incubated in the dark for 1 hour at room temperature and then read on an Envision plate reader (PerkinElmer, Massachusetts, USA). IC50 values were determined using a proprietary software RISE (Robust Investigation of Screening Experiments), developed in house on the Pipeline Pilot platform (Biovia, v. 17.2.0). Data represent the mean of three independent determinations.

O=C1CCC(N2Cc3c(CNC(=O)c4ccc(Cl)c(C(F)(F)F)c4)cccc3C2=O)C(=O)N1 (stereo not drawn) [US20250122166, Compound 21]
IC50: < 1000 nM

O=C1CCC(N2Cc3c(CNC(=O)c4ccc(Cl)cc4Cl)cccc3C2=O)C(=O)N1 (stereo not drawn) [US20250122166, Compound 28]
IC50: < 1000 nM

O=C1CCC(N2Cc3c(CNC(=O)c4ccc(Br)cc4)cccc3C2=O)C(=O)N1 (stereo not drawn) [US20250122166, Compound 18]
IC50: < 1000 nM
